One assay addresses T1, full-length tau 441 (Homo sapiens, UniProt P10636).
T1 construct: The gene for the human full-length tau was prepared on a plasmid called pET28a(+)-tau2N4R; made in house; host or cells: E. coli pRare
As to the kind of experiment: Thioflavin-T assay of heparin-induced tau aggregation. The format is biochemical. The procedure:
Figure 5 Tau aggregation-influencing effect of TF2D-5 and TF2D-5a. The ThT assay was performed in a FLUOstar plate reader from BMG Labtech. Twenty-five micrometers recombinant full-length tau 441 was mixed with 12.5 µM heparin, 200 µM DTT, 0.05% NaN3, and […]. Compounds were added with a concentration of 25 µM. The total volume was adjusted to 100 µL with PBS pH 7.4, and the plate was measured with bottom optics. The experiment ran at 37 °C with measurement intervals of 20 min. Before each measurement, the plate was shaken for 15 s at 300 rpm. A 3 mm borosilicate bead was added to each well. (A) The effect of TF2D-5 when added at different time points during the ThT assay. When added at the start of the experiment no aggregation can be observed for the duration of the experiment (green). […] (B) The addition of TF2D-5a to the sample inhibits tau aggregation during the complete experiment which equals a lag time increase of at least 400% (blue). […] CP1 was obtained by randomizing the amino acid residue composition of TF2D-5.
To investigate whether TF2D-5 and TF2D-5a induce an extension of the lag time of tau aggregation, we performed a ThT experiment with sub-stoichiometric D-peptide concentrations. For this, we used tau that was produced according to the protocol in the Section 4. Twenty-five micrometers of full-length tau was incubated with 6.25 µM, 12.5 µM 25 µM, 50 µM, and 100 µM of D-peptides. As expected, we observed an increase in the lag time of the full-length tau aggregation with the increasing D-peptide concentrations. […] The addition of 6.25 µM of TF2D-5a shifted the lag time by about 60 h (a 200% increase).
ThT assays to characterize the aggregation inhibition properties of the selected compounds were conducted as follows. All measurements were performed in a FLUOstar plate reader (BMG, Offenburg, Germany). Recombinant full-length tau 441 (25 µM) was mixed with heparin (12.5 µM), DTT (200 µM), NaN3 (0.05%), and ThT (20 µM). […] The compounds were added with a maximum concentration of 25 µM. The total volume was adjusted to 100 µL with PBS pH 7.4, and the plate (Corning, New York, NY, USA) was measured with bottom optics. A 3 mm borosilicate bead (Hilgenberg GmbH, Malsfeld, Germany) was added to each well. The experiment ran at 37 °C, with measurement intervals of 20 min. Before each measurement, the plate was shaken for 15 s at 300 rpm.

The target in a further assay is T2, R3 domain of tau (Homo sapiens, UniProt P10636).
T2 construct: purchased CASLO ApS, Lyngby, Denmark; host or cells: synthetic peptide
T2 sequence (P10636 622-652 limits assumed): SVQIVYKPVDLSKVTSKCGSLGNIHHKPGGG
As to the kind of experiment: SPR measurement (Biacore 8K, single cycle). The format is binding. Particulars: single cycle kinetics, peptide immobilized on CM5 chip, R3 (304-336) 3.125-100 nM as analyte, PBS pH 7.4, 0.05% Tween20, 1:1 fit. How it is done: Figure 8 SPR measurements of TF2D-5 and TF2D-5a with monomeric full-length tau 441 and tau repeat region 3. […] The concentration of tau during the measurement ranged from 3.125 nM to 25 nM. […] Tau was used in concentrations ranging from 31.25 nM to 500 nM. SPR measurements of A and B were recorded on a T200 Biacore instrument, the corresponding compound was immobilized on a CM5 chip from Cytiva while monomeric tau served as analyte. Tests were performed with TBS pH 7.4, 0.05% Tween20 and 10 µM DTT as running buffer. Fit calculation was completed with the internal evaluation software of the T200 Biacore. A 1:1 model was used for both fits. […] The concentrations for the single cycle measurement ranged from 3.125 nM to 100 nM. Measurements of C were performed on a Biacore 8K using a CM5 chip from Cytiva. TF2D-5a was immobilized on the chip while the R3 region of tau was used as analyte. PBS pH 7.4 with 0.05% Tween20 as used as running buffer. Fit calculation was performed using the Biacore insight evaluation software and a 1:1 model. […]
Measurements of TF2D-5a against the R3 domain of tau were performed on a Biacore 8K (GE Healthcare, Uppsala, Sweden) using a single cycle experiment. […] The data were analyzed using the Biacore insight evaluation software 3.0.12.15655 using a 1:1 fit.

[1] abbreviates: 6.25 µM D-peptide, 25 µM full-length tau.

In general, Kd refers to the constant that tells how readily two partners part at equilibrium.

Non-standard residues stand in square brackets, D forms with d. Residues, ends and D or L forms follow the SMILES beside them.

T1 sequence (P10636 1-441 isoform P10636-8): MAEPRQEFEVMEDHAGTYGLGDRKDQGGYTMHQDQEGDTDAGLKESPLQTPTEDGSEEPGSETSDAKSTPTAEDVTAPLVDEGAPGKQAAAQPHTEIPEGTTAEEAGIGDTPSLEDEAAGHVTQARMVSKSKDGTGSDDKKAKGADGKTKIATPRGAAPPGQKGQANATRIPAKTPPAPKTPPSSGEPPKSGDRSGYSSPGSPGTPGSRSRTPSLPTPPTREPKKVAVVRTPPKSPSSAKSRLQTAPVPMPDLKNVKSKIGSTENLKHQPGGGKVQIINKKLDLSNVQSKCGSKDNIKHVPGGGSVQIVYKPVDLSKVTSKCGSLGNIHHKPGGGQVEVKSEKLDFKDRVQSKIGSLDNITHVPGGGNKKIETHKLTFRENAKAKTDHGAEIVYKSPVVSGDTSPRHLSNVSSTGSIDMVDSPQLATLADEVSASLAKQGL

With `CC[C@@H](C)[C@@H](NC(=O)[C@@H](Cc1c[nH]cn1)NC(=O)CNC(=O)CNC(=O)[C@H]1CCCN1C(=O)[C@H](NC(=O)[C@@H](CCCCN)NC(=O)[C@@H](Cc1ccccc1)NC(=O)[C@@H](CC(C)C)NC(=O)[C@H](NC(=O)[C@@H](CCC(N)=O)NC(=O)[C@@H](Cc1ccc(O)cc1)NC(=O)CNC(=O)CNC(=O)[C@H](N)CC(=O)O)[C@H](C)CC)[C@H](C)CC)C(=O)N[C@H](Cc1c[nH]cn1)C(N)=O` [TF2D-5] (H-[dD]GG[dY][dQ][dI][dL][dF][dK][dI][dP]GG[dH][dI][dH]-NH2), the lag time increase at full-length tau 441 (setting [1]) is 100%; on full-length tau 441 (12.5 µM D-peptide, 25 µM full-length tau), 200%.

With `CC[C@@H](C)[C@@H](NC(=O)[C@@H](Cc1c[nH]cn1)NC(=O)CNC(=O)CNC(=O)[C@H]1CCCN1C(=O)[C@H](NC(=O)[C@@H](CCCCN)NC(=O)[C@@H](Cc1ccccc1)NC(=O)[C@@H](CC(C)C)NC(=O)[C@H](NC(=O)[C@@H](CCC(N)=O)NC(=O)[C@@H](Cc1ccc(O)cc1)NC(=O)CNC(=O)CNC(=O)[C@H](N)CC(=O)O)[C@H](C)CC)[C@H](C)CC)C(=O)N[C@H](Cc1c[nH]cn1)C(=O)N[C@H](CCCNC(=N)N)C(=O)N[C@H](CCCNC(=N)N)C(=O)N[C@H](CCCNC(=N)N)C(=O)N[C@H](CCCNC(=N)N)C(=O)N[C@H](CCCNC(=N)N)C(N)=O` [TF2D-5a] (H-[dD]GG[dY][dQ][dI][dL][dF][dK][dI][dP]GG[dH][dI][dH][dR][dR][dR][dR][dR]-NH2), the lag time increase is given as 200% at full-length tau 441 (setting [1]) and “at least 400%” at full-length tau 441 (25 µM compound, 25 µM tau 441, added at start). At R3 domain of tau, the Kd came out at 7.06 pM.
